Results: patent US20250034139A1, “AMINE COMPOUNDS HAVING ANTI-INFLAMMATORY, ANTIFUNGAL, ANTIPARASITIC, AND ANTICANCER ACTIVITY” (PHARMA CINQ, LLC, priority 2013, published 2025)
Marks after values point to notes of the source that are not given here.

What was measured:
THP-1 cells = experiment: Example D: LPS-triggered THP-1 cell death assay, acute/5-hour and chronic/48-hour; format: cell-based, Human; details: 10 ng/ml LPS, 0.1 μM test compound, 48 hours
Protocol: Compounds of the invention were tested at 0.1 μM versus AC in the LPS-triggered THP-1 cell death assay. Both acute/5-hour and chronic/48-hour phases of cell death were assessed. Compounds were screened in batches with DMSO as the negative control and AC as the high activity control.

[1] = system: EAE induced by PLP139-151; experiment: Example G: Experimental Autoimmune Encephalitis (EAE) mouse model of multiple sclerosis; format: in vivo; details: for EAE Score on Day 46: 60 μmol/kg by oral gavage from Day 14, score 0-5; for EAE Score on Day 14 (Before Treatment): baseline, score 0-5
[2] = system: 4T1 mouse mammary breast cancer cells; experiment: Example O: syngeneic 4T1 breast cancer growth in Balb/C mice; format: in vivo; details: for Final Tumor Volume / Δ BW % / Final Body Weight / Initial Body Weight: 4T1 in female Balb/C mice; for Final Tumor Volume: 120 μmol/kg/day oral gavage, day 2 to day 30; for Δ BW % / Final Body Weight / Initial Body Weight: 120 μmol/kg/day oral; for Δ BW %: final vs initial body weight; for Final Body Weight: in g (unit assumed); for Initial Body Weight: initial (baseline)
Protocol: Cancer models in mice generally either involve syngeneic murine tumors in immunocompetent mice or xenografts of human tumors in immunocompromised mice. […] Mice received test compounds by oral gavage in 1% hydroxypropylmethylcellulose from day 2 until day 30. Tumor growth was assessed by caliper measurements twice per week and tumor weight after necropsy, and body weight was also monitored. Treatment groups were: • 1. […] HPMC) • 2. CI (120 μmol/kg/day) • 3. BA (120 μmol/kg/day) • 4. CP (120 μmol/kg/day) • 5. CQ (120 μmol/kg/day) • 6. AA (120 μmol/kg/day) • 7. AC (120 μmol/kg/day)

[3] = system: 4T1 murine breast cancer cells; experiment: Example S: in vitro anticancer screen, 4T1 cells, Wst1; format: cell-based, mouse; details: Mus musculus, 4T1, 18 h, 18 hr, Wst1; for viability at 1 µM: read-out: 4T1 1 μM, percent of cancer cell survival relative to vehicle treated cells; for viability at 5 µM: read-out: 4T1 5 μM, percent of cancer cell survival relative to vehicle treated cells
Summary of the method: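 Read-out is Wst1 absorbance (450 nm, reference 630 nm) after roughly 2 hr dye incubation, giving percent cell survival versus vehicle. Before that, compounds at 1 μM or 5 μM were applied for 18 hr to 4T1 cells plated at 1×10^4 per well.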

[4] = system: PC3 human prostate cancer cells; experiment: Example S: in vitro anticancer screen, PC-3 cells, Wst1; format: cell-based; details: Homo sapiens, PC-3, approximately 20 hours, Wst1, read-out: PC-3, percent of cancer cell survival relative to vehicle treated cells
Summary of the method: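 Values give percent survival relative to vehicle, read by Wst1 absorbance (450/630 nm) after 2 h dye incubation, in triplicate. Cells were seeded at 2×10^4/well and treated about 20 h with compound at 0.4, 0.5 or 2.5 μM, depending on compound.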

[5] = system: PC-3 prostate cancer cells; experiment: Example T: sensitisation of PC-3 cells to doxorubicin, oxaliplatin, paclitaxel or vincristine, Wst1; format: cell-based, human; details: PC-3 cells, 72 hours; for viability at 2.5 µM: compound 2.5 μM alone; for Doxorubicin 3.5 μM: percent cell survival / Oxaliplatin 100 μM: percent cell survival / Paclitaxel 50 μM: percent cell survival / Vincristine 100 nM: percent cell survival: chemotherapy agent alone normalized to 100%
[6] = system: HCT-116 colon adenocarcinoma cells; experiment: Example Q: HCT-116 liver metastases of human colorectal cancer in nude mice; format: in vivo; details: 240 μmol/kg/day oral, 28 days
From the text: A major cause of morbidity and mortality in patients with colorectal cancer is metastasis of the tumor into the liver; colorectal cancer can often be successfully resected from the primary site, but metastases to the liver are much less accessible to surgical treatment. A mouse model of colorectal cancer metastasis to the liver has been established, using HCT-116 colon adenocarcinoma cells injected into the spleen of athymic (nude) mice. The HCT-116 cancer cells spontaneously spread from the spleen into the liver via the circulation, and they form tumors in the liver (Ishizu, K., Sunose, N., Yamazaki, K., Tsuruo, T., Sadahiro, S., Makuuchi, H., and Yamori, T. Development and Characterization of a Model of Liver Metastasis Using Human Colon Cancer HCT-116. Biol. Pharm. Bull. 2007, 30(9):1779-1783).
Mice (female Hsd:athymic nude-Foxn1^nu) were anesthetized with xylazine/ketamine intraperitoneal injection, followed by incision approximately 10 mm on the left subcostal region (area disinfected with ethanol) to expose the peritoneum. The peritoneum was opened for about 8 mm near the spleen, and 2.5×10^6 cells in 50 μL PBS were injected into the spleen using a 30G needle. The spleen was repositioned, and the surgical area was closed using sutures and clips.
The day after receiving cells, mice were randomized into groups of five based upon body weight to provide groups with approximately equivalent mean body weight. Mice received a single, daily oral dose of test article or vehicle (1% hydroxypropylmethylcellulose) beginning 48 hours following cell injection into the spleen.
At study termination 28 days after HCT-116 cell injection, body weights were recorded, and spleens and livers were removed, weighed and fixed in 10% formalin. Livers were sectioned and stained; the relative areas of normal and tumor tissue were quantified in histology sections with quantitative planimetry software.

[7] = system: Vit-D3 activated THP-1 cells; experiment: Example B: Acridine Orange (A.O.) uptake, lysosomal acidification and integrity; format: cell-based, Human; details: 5 hours
Protocol: In this experiment, cell viability was monitored and uptake and accumulation of acridine orange, a lysosomotropic fluorescent dye, was used to assess lysosomal acidification and integrity. JC-1 dye was used to measure effects of test compounds on mitochondrial membrane potential (MMP); reduction of MMP is a feature of apoptotic cell death. • 1. […] The tubes were washed twice in DPBS, resuspended in 500 μl DPBS and acquired on the FACSCalibur.

S. cerevisiae = experiment: Example I: Saccharomyces cerevisiae growth inhibition (OD 600 nm); format: cell-based; details: tested 4 to 50 μM
Protocol: An overnight culture of S. cerevisiae was dilution in YPD broth to concentration of 40,000/ml and 150 μl/well was plated in 96 well plates. Compounds were then added to each well with concentration ranged from 4 to 50 μM as final concentration. The plates were inoculated at 30° C. overnight with shaking at 220 rpm and absorbance at 600 nm was read after 18 hour incubation.
• 1. One days prior to the inoculum preparation, pick a single colony of S. cerevisiae from the Sabouraud Dextrose Agar plate using the inoculum loop and inoculate into a 50 mL tube containing 10 ml of YPD growth medium • 2. Incubate at 30° C. with shaking at 220 rpm for 24 hours with loosen lid to allow air in and facilitates growth. • 3. Examine an aliquot of the culture under a microscope for yeast cell morphology and lack of bacterial contamination. • 4. Dilute the overnight culture with YPD medium at 1:30 dilution (70 ul to 2.1 ml) and count the number of cells as 4,230,000/ml. • 5. Mix 620 μl of 1:30 dilution and 64.4 ml YPD to make final concentration of 40,000/ml cells • 6. Plated 144 μl/well in four 96-well plates.
• 1. From 10 mM DMSO stock solutions, make serial dilutions of compounds to 0.1, 0.2, 0.3, 0.63 and 1.25 mM solutions • 2. Add 6 μl each of diluted compound solutions per well in duplicates. The final concentrations were 0, 4, 8, 12, 25 and 50 micromolar. • 3. Incubated all plates at 30 C for overnight (˜18 hours) with 220 rpm shaking. • 4. Read absorbance at OD600 for each plate on Spectra Max Plus plate reader. • 5. Calculate the % inhibition of each compound against the DMSO treated cell and plotted.

[8] = system: Cryptococcus neoformans (serotype D); experiment: Example K: Cryptococcus neoformans (serotype D) growth inhibition; format: cell-based
[9] = Homo sapiens, Wst1, vehicle = 100, read-out: No Chemo: percent cell survival
[10] = compound 2.5 μM + doxorubicin 3.5 μM
[11] = compound 2.5 μM + oxaliplatin 100 μM
[12] = compound 2.5 μM + paclitaxel 50 μM
[13] = compound 2.5 μM + vincristine 100 nM
[14] = HCT-116 liver metastases, nude mice

Compound	Viable cell percent change, Chronic/48-hour, Mean (THP-1 cells) [%]	EAE Score on Day 46 [1]	EAE Score on Day 14 (Before Treatment) [1]	Final Tumor Volume [2] [mm^3]	Δ BW % [2] [%]	Final Body Weight [2]	Initial Body Weight [2] [g]	viability at 1 µM [3] [%]	viability at 5 µM [3] [%]	viability at 2.5 µM [4] [%]	viability at 2.5 µM [5, 9] [%]	Doxorubicin 3.5 μM: percent cell survival [5, 10] [%]	Oxaliplatin 100 μM: percent cell survival [5, 11] [%]	Paclitaxel 50 μM: percent cell survival [5, 12] [%]	Vincristine 100 nM: percent cell survival [5, 13] [%]	also measured
CCCCCCOc1ccccc1OCCNc1ccnc2ccccc12 [CP, N-{2-[2-(Hexyloxy)phenoxy]ethyl}quinolin-4-amine]	49.81	1.86 ± 0.34	0.86 ± 0.14	352 ± 114	−0.0	24.1 ± 1.3	24.1 ± 0.9	82.6	38	35.6	35.6	72.4	76.5	74.5	48.2	–
CCCCCCOc1ccccc1OCCCNc1ccnc2ccccc12 [CQ, N-{3-[2-(Hexyloxy)phenoxy]propyl}quinolin-4-amine]	–	–	–	140 ± 60	−2.0	24.4 ± 0.9	24.9 ± 0.6	71.9	57.9	95.8	95.8	86.5	93.8	34.8	47.1	tumor growth versus vehicle-treated mice, in words ([2]; daily oral administration, 120 μM/kg/day as printed): most active of the compounds tested in this experiment; excess of the Vehicle group's liver weight/body weight ratio over the treated group [6]: 12%; area of liver invaded by metastatic cancer cells, in words ([6]; histology planimetry): markedly reduced the area of liver invaded by metastatic cancer cells; Final Body Weight Grams [6, 14]: 26.2 ± 0.9 NS Grams; Liver Weight % of Body Weight [6, 14]: 5.3 ± 0.1%; Tumor Area % of Vehicle Group [6, 14]: 0.15% *; Tumor Area % of Total Liver ([6]; HCT-116 liver metastases, nude mice, histology planimetry): 0.02 ± 0.01%
CCCCCCOc1ccc(OCCCCNc2ccnc3ccccc23)cc1 [CZ, N-{4-[4-(Hexyloxy)phenoxy]butyl}quinolin-4-amine]	53.70	2.29 ± 0.20	1.00 ± 0.00	–	–	–	–	50.6	28.3	–	–	–	–	–	–	viability at 0.4 µM ([4]; 0.4 μM): 96.7%; viability at 0.4 µM ([5]; Homo sapiens, compound 0.4 μM alone, Wst1, vehicle = 100, read-out: No Chemo: percent cell survival): 96.7%; Doxorubicin 3.5 μM: percent cell survival ([5]; compound 0.4 μM + doxorubicin 3.5 μM): 89.1%; Oxaliplatin 100 μM: percent cell survival ([5]; compound 0.4 μM + oxaliplatin 100 μM): 91.1%; Paclitaxel 50 μM: percent cell survival ([5]; compound 0.4 μM + paclitaxel 50 μM): 101.9%; Vincristine 100 nM: percent cell survival ([5]; compound 0.4 μM + vincristine 100 nM): 90.3%
CCN(CC)CCCC(C)Nc1ccnc2cc(Cl)ccc12 (stereo not drawn) [Chloroquine, Chloroquine diphosphate, reference compound]	–	–	–	–	–	–	–	–	–	–	–	–	–	–	–	A.O. FL-3 fluorescence (MFI) percent change from DMSO no LPS, Mean ± SE ([7]; 50.0 μM C.Q., 1 ng/ml LPS): −72.28 ± 0.78%; A.O. FL-3 fluorescence (MFI) percent change from DMSO no LPS, Mean ± SE ([7]; 100.0 μM C.Q., 1 ng/ml LPS): −88.28 ± 1.60%; A.O. FL-3 fluorescence (MFI) percent change from DMSO no LPS, Mean ± SE ([7]; 100.0 μM C.Q., No LPS): −91.25 ± 0.60%; inactive compound (inhibition of yeast growth, in words) (S. cerevisiae): did not show any inhibition of yeast growth up to 50 uM; IC50 ([8]; Cryptococcus deneoformans): > 100 µM; growth inhibition of Cryptococcus neoformans (maximum) ([8]; chloroquine at a concentration of 100 micromolar): less than 50%; inhibition at 100 µM ([8]; read-out: growth inhibition of Cryptococcus neoformans (maximum), chloroquine at a concentration of 100 micromolar): 40%
CN(C(=O)c1c(O)c2ccccc2n(C)c1=O)c1ccccc1 [Linomide, reference compound]	–	2.29 ± 0.48	0.93 ± 0.19	–	–	–	–	–	–	–	–	–	–	–	–	–
